# Read-outs that look alike come from different tables or passages of the source.
# How the values were obtained:
# BG1Luc4E2 cells [1] = test: Luciferase induction in stably transfected BG1Luc4E2 cells; format: cell-based, human; details: for luciferase activity in BG1Luc4E2 cells, initial library screen: 10 µM, normalized to 1 nM E2, single screen in triplicate; for luciferase activity in BG1Luc4E2 cells, initial library screen / MDL (minimal detection limit) [M], BG1Luc4E2 / EC50: 24 h; for EC50: read-out: EC50 [M], BG1Luc4E2; for Maximum Induction (RLU), BG1Luc4E2: at 30 µM Genistein, 10 µM Br-ERβ-041, 0.1 nM E2, 1 µM PPT
# BG1LucERβc9 cells [2] = test: Luciferase induction in stably transfected BG1LucERβc9 cells; format: cell-based, human; details: for MDL (minimal detection limit) [M], BG1LucERβc9 / EC50: 24 h; for EC50: read-out: EC50 [M], BG1LucERβc9; for Maximum Induction (RLU), BG1LucERβc9: at 30 µM Genistein, 10 µM Br-ERβ-041, 0.1 nM E2, 1 µM PPT
# ERα = target: T1, ERα (Homo sapiens, UniProt P03372); test: ER-responsive luciferase reporter; format: cell-based; details: read-out: EC50 [M], ERα; SKBR3 cells, ERα expression plasmid, 24 h, mean ± SD of three experiments
# T1 sequence (P03372 1-595): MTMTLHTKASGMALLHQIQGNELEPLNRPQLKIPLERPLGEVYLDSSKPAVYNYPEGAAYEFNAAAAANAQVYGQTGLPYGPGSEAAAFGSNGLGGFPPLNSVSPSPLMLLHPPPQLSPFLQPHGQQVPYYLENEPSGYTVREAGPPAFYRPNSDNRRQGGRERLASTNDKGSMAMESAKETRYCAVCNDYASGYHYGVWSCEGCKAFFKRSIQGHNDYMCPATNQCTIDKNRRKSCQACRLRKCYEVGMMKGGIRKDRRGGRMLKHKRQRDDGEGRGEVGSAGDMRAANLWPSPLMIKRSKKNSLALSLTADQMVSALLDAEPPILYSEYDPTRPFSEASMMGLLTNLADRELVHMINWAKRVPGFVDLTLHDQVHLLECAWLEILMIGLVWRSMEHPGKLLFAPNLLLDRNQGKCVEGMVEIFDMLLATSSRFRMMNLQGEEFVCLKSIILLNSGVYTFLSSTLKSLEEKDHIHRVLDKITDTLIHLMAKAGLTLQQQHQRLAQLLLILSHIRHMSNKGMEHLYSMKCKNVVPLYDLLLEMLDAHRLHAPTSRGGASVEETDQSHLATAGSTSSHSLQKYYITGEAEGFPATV
# ERβ = ERβ (Homo sapiens, UniProt Q92731); test: ER-responsive luciferase reporter; format: cell-based; details: SKBR3 cells, ERβ expression plasmid, 24 h, mean ± SD of three experiments
# BG1LucERβc9 cells [3] = test: Antagonism of agonist-induced luciferase activity in BG1LucERβc9 cells; format: cell-based, human; details: for inhibition of E2-inducible reporter gene expression in BG1LucERβc9 cells: Supplemental Figure S5
# BG1Luc4E2 cells [4] = test: Antagonism of agonist-induced luciferase activity in BG1Luc4E2 cells; format: cell-based, human; details: p < 0.05, Student's t-test
# [5] = mean ± SD of 8–16 experiments, genistein and Br-ERβ-041 at 50% of maximum E2 activity
# ERβ, sequence (Q92731 whole entry): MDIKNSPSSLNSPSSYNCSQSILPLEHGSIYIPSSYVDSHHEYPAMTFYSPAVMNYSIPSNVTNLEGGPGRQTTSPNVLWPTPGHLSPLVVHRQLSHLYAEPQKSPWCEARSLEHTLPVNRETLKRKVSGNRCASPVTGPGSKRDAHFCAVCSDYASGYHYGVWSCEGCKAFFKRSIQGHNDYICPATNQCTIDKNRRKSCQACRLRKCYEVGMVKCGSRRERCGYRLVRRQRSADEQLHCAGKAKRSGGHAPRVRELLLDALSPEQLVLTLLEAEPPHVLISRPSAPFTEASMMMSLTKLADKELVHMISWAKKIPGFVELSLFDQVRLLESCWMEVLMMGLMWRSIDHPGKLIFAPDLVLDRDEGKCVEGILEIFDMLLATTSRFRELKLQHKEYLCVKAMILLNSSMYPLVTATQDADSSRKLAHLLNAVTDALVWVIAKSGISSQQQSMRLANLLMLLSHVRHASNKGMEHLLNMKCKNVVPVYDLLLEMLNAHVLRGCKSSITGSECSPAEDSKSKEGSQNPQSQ
smiles,measurement,setting,value
"CC(C)(c1ccc(O)cc1)c1ccc(O)cc1 [Chemical P159, bisphenol A]","luciferase activity in BG1Luc4E2 cells, initial library screen",BG1Luc4E2 cells [1],high activity
"C[C@]12CC[C@@H]3c4ccc(O)cc4CC[C@H]3[C@@H]1CC[C@@H]2O [Chemical E2, 17β-estradiol]","MDL (minimal detection limit) [M], BG1Luc4E2",BG1Luc4E2 cells [1],3e-12 M
same,EC50,BG1Luc4E2 cells [1]; Homo sapiens,1.6e-11 M
same,"Maximum Induction (RLU), BG1Luc4E2",BG1Luc4E2 cells [1],"10,594 ± 250 RLU"
same,"MDL (minimal detection limit) [M], BG1LucERβc9",BG1LucERβc9 cells [2],1e-12 M
same,EC50,BG1LucERβc9 cells [2]; Homo sapiens,1.3e-11 M
same,"Maximum Induction (RLU), BG1LucERβc9",BG1LucERβc9 cells [2],"5,236 ± 71 RLU"
"CCNc1nc(Cl)nc(NC(C)(C)C#N)n1 [Chemical P12, cyanazine]","luciferase activity in BG1Luc4E2 cells, initial library screen",BG1Luc4E2 cells [1],not inducing significant luciferase activity above background
"CCCc1c(-c2ccc(O)cc2)nn(-c2ccc(O)cc2)c1-c1ccc(O)cc1 [PPT, 4,4’,4”-(4-Proply-[1H]-pyrazole-1,3,5-triyl)trisphenol]",EC50,ERα,2.5e-10 M
same,"EC50 [M], ERβ",ERβ,No induction
same,"MDL (minimal detection limit) [M], BG1Luc4E2",BG1Luc4E2 cells [1],1e-10 M
same,"Maximum Induction (RLU), BG1Luc4E2",BG1Luc4E2 cells [1],"11,422 ± 356 RLU"
same,EC50,BG1Luc4E2 cells [1]; [5],6.7e-10 M
same,"MDL (minimal detection limit) [M], BG1LucERβc9",BG1LucERβc9 cells [2],1e-10 M
same,"Maximum Induction (RLU), BG1LucERβc9",BG1LucERβc9 cells [2],"7,017 ± 188 RLU"
same,EC50,BG1LucERβc9 cells [2]; [5],3.2e-09 M
"C[C@]12CC[C@@H]3c4ccc(O)cc4C[C@@H](CCCCCCCCC[S+]([O-])CCCC(F)(F)C(F)(F)F)[C@H]3[C@@H]1CC[C@@H]2O (stereo partly drawn) [fulvestrant, Fulvestrant]",inhibition of E2-inducible reporter gene expression in BG1LucERβc9 cells,BG1LucERβc9 cells [3],inhibit E2-inducible reporter gene expression
same,"concentration-dependent antagonism of E2-induced luciferase activity, BG1LucERβc9 vs BG1Luc4E2 cells",BG1LucERβc9 cells [3]; comparison of both cell lines,comparable
same,antagonism of Br-ERβ-041 induced activity in BG1Luc4E2 cells versus BG1LucERβc9 cells,BG1Luc4E2 cells [4],significantly more potent antagonist
"O=c1c(-c2ccc(O)cc2)coc2cc(O)cc(O)c12 [Genistein, genistein]","MDL (minimal detection limit) [M], BG1Luc4E2",BG1Luc4E2 cells [1],1e-07 M
same,ERα-dependent reporter gene induction in BG1Luc4E2 cells at low concentration,"BG1Luc4E2 cells [1]; Br-ERβ-041 31.6 nM, genistein 10 nM, preliminary studies, data not shown",failed to induce
same,EC50,BG1Luc4E2 cells [1]; Homo sapiens,1.7e-07 M
same,"Maximum Induction (RLU), BG1Luc4E2",BG1Luc4E2 cells [1],"17,623 ± 575 RLU"
same,"MDL (minimal detection limit) [M], BG1LucERβc9",BG1LucERβc9 cells [2],1e-08 M
same,EC50,BG1LucERβc9 cells [2]; Homo sapiens,2e-08 M
same,"Maximum Induction (RLU), BG1LucERβc9",BG1LucERβc9 cells [2],"8,804 ± 306 RLU"
"CC/C(=C(\c1ccc(O)cc1)c1ccc(OCCN(C)C)cc1)c1ccccc1 [Chemical 4-OHT, 4-hydroxy tamoxifen]",inhibition of E2-inducible reporter gene expression in BG1LucERβc9 cells,BG1LucERβc9 cells [3],inhibit E2-inducible reporter gene expression

# From paper PMC4772679 (Environmental toxicology and chemistry / SETAC, 2015)
